Results as given in article PMC8158122, “Development of Pelubiprofen Tromethamine with Improved Gastrointestinal Safety and Absorption” (Pharmaceutics, 2021).
≈ marks a conversion by molar mass, not a printed value. Where two headings read alike, the source gives them in different places.

Columns and labels:
[1] = tested on: gastric mucosa; test: Gastric mucosal injury test in rats; format: in vivo, Sprague-Dawley (SD) rats; conditions: single p.o. dose equivalent to PEL 300 mg/kg, 6 h after dosing, 48 h fasted male SD rats, n = 10
Description: The gastric mucosal injury test was performed by KNOTUS Co., Ltd. (Guri, Korea) and approved by the Animal Ethics Committee (Protocol number: […]-354 approved 18 October 2018). Male Sprague-Dawley (SD) rats (7-weeks-old) from Orient bio Co., Ltd. […] The rats were randomly divided into three groups, each group consisting of 10 animals. […] The area of the lesions was analyzed using ImageJ software (National Institutes of Health, Bethesda, MD, USA).

[2] = Solubility at various pH values; format: physicochemical; conditions: thermodynamic from solid, stirred 24 h, mean ± S.D. (n = 3)
Description: (§1) PEL and butylparaben (IS) were prepared and further diluted in a mixture of methanol and deionized water at a ratio of 4:1 (v/v) to provide a working PEL and IS solution of concentration 30 µg/mL. The PEL concentration was determined using an HPLC system (Model 1260; Agilent Technologies Inc., Santa Clara, CA, USA). Chromatographic separation was performed using a C18 column (4.6 × 150 mm, 5 µm, Waters, Milford, MA, USA) at a flow rate of 1.1 mL/min with the mobile phase consisting of methanol, water, and acetic acid at a ratio of 1200:800:1 (v/v). The sample was injected into the column, and the peaks were monitored using a UV detector at 274 nm.
The solubilities of PEL-T and PEL were compared and evaluated based on the pH changes. After dissolving 5 g of PEL-T and PEL each in 5 mL of water, a pH 1.2 solution, a pH 4.0 solution, and a pH 6.8 solution, respectively, the mixtures were stirred for 24 h, filtered using a 0.45 μm polyvinylidene difluoride (PVDF) syringe filter, and then were analyzed using an HPLC assay, as described above (Section 2.4).

[3] = PK study in rats after oral administration; format: in vivo, Sprague-Dawley (SD) rats; conditions: male, Sprague-Dawley, rat, PEL in plasma, single oral dose 9.3 mg/kg PEL equivalent, n = 10
Description: Male Sprague-Dawley (SD) rats (8-weeks-old) from DBL Co., Ltd. (Eumseong, Korea) were maintained under constant laboratory conditions (temperature: 22 ± 3 °C, RH: 50 ± 20%, light/dark cycle: 12 h). The rats were divided into two groups, each composed of 10 rats. The animals were fasted overnight and were only allowed free access to water. […] Blood samples (500 μL) were collected directly from the jugular vein at predetermined time points (0, 0.083, 0.167, 0.25, 0.5, 0.75, 1, 2, 3, 4, and 8 h) using heparinized syringes. The collected blood samples were centrifuged immediately at 12,000 rpm for 5 min at 4 °C and the obtained plasma samples were stored at −70 °C until analysis.
The plasma concentration of PEL was determined using LC–MS/MS (Agilent 1260; Agilent Technologies Inc., Santa Clara, CA, USA). The chromatographic separation of PEL was performed using an ODS column (Poroshell 120 EC-C18, 2.1 × 30 mm, 2.7 µm, Agilent Technologies Inc., Santa Clara, CA, USA). The mobile phase (MP) consisted of 0.1% formic acid and acetonitrile with a gradient elution and the flow rate used was 0.4 mL/min. Mass spectrometric detection was done using an AB Sciex API 4000 triple quadrupole mass spectrometer (AB Sciex Instruments, Framingham, MA, USA). The electrospray ionization (ESI) source was set to positive ion mode. The mass-to-charge ratios (m/z) used were 259.0 → 195.2 for PEL and 255.1 → 208.9 for ketoprofen, which were used as the internal standards (IS). […] The assay method was validated for linearity, accuracy, and precision.
The PK parameters for PEL were calculated using the noncompartmental analysis and WinNonlin® 8.1 (Pharsight, CA, USA). The area under the plasma concentration–time curve from 0 h to the last time point (AUCt) was calculated for all samples using the linear trapezoidal method. The maximum plasma concentration and time to reach the maximum plasma concentration (Tmax) were directly obtained from the plasma concentration–time profiles.

[4] = set-up: method as in PMID 27492018, doi:10.2133/dmpk.10.637; conditions: oral administration, cited from earlier work
[5] = set-up: method as in PMID 27492018, doi:10.2133/dmpk.10.637; conditions: oral administration, rats; cited from earlier work
[6] = Stress stability test (high temperature or high humidity); format: physicochemical
Description: as §1
Stability tests of PEL-T and PEL were performed under stress storage conditions. PEL-T and PEL were packed into high-density polyethylene (HDPE) bottles with caps and used as stability test samples. For stress stability, the samples were stored at a high temperature (80 ± 5 °C) or high humidity (relative humidity (RH) 90 ± 5%). The drug content and impurities were determined using the HPLC assay described above (Section 2.4) at the following time points: 0, 14, and 21 days (Tables S3 and S4).

[7] = tested on: Caco-2 cells; test: Permeability test in Caco-2 cell monolayers; format: in vitro ADME
Description: (§2) Caco-2 monolayer experiments were performed as previously described with a few modifications [20]. The Caco-2 cells were obtained from the Korean Cell Line Bank (Seoul, Korea) and used in the transport experiments between passages 40 and 50. The cells were cultured at 37 °C with 5% CO2 and maintained in Dulbecco’s modified Eagle’s medium with 10% fetal bovine serum, 1% nonessential amino acids, 10,000 units/mL penicillin, and 10,000 μg/mL streptomycin. For the transport studies, cells were seeded on rat tail collagen-coated Transwell insert filters on 12-well plates at 3 × 10^5 cells/500 μL and were cultured for 21–29 days. For the first 7 days, the medium was replaced every 2–3 days, and daily thereafter. Monolayer integrity was checked before and after each experiment using a Millicell-ERS instrument to determine the transepithelial electrical resistance (TEER) across the monolayer and to ensure that there were no substantial changes in the monolayer integrity throughout the duration of the experiments.
(§3) Prior to transport experiments, the cell monolayers were washed twice using Hank’s balanced salt solution (HBSS), and the Caco-2 cell Transwell model was preincubated at 37 °C for 15 min. […] The sample was pretreated using a protein precipitation method and the concentrations of PEL in each sample were determined using an LC–MS/MS assay, as described below (Section 2.9). […] The sample was pretreated using a protein precipitation method and the concentration of PEL in each sample was determined using an LC–MS/MS assay. The steady state flux (Js) and permeability coefficient (Kp) were calculated according to Equations (1) and (2):Js [ng/(cm^2 × h)] = Qr/(A × t)(1) Kp (cm/h) = Js/Cd(2) where Qr is the total permeation amount of PEL in the basolateral (for the absorptive transport) or apical (for the secretory transport) side (ng), A is the surface area of the insert (1.12 cm^2), t is the permeation time (h), and Cd is the initial drug concentration in the apical (for the absorptive transport) or basolateral (for the secretory transport) side (ng/cm^3). […]

[8] = Permeability test in Caco-2 cell monolayers; format: in vitro ADME; conditions: human, Caco-2; Kp [B to A]/Kp [A to B]
Description: as §2, §3

CC(C(=O)O)c1ccc(C=C2CCCCC2=O)cc1 (stereo not drawn) [PEL, 2-[4-(2-oxocyclohexylidenemethyl)phenyl] propionic acid]
Damage area (mucosal hemorrhagic lesions) [1]: 4.01%
solubility at 24 h ([2]; aqueous buffer, pH 4.0 solution): 70 ± 40 µg/mL (≈ 271 µM)
solubility at 24 h ([2]; aqueous buffer, pH 6.8 solution): 4050 ± 140 µg/mL (≈ 15700 µM)
solubility at 24 h ([2]; simulated gastric fluid, pH 1.2 solution): 30 ± 10 µg/mL (≈ 116 µM)
solubility at 24 h ([2]; water): 130 ± 30 µg/mL (≈ 503 µM)
AUC(0-t) [3]: 19.2 ± 7.01 ng·h/mL
Cmax [3]: 46.3 ± 29.2 ng/mL
Tmax ([3]; plasma, po, 9.3 mg/kg): 23.4 ± 11.4 min
Time to reach the maximum plasma concentration (Cmax) ([4]; female beagle dogs): 2 h
Time to reach the maximum plasma concentration (Cmax) ([4]; male beagle dogs): 1 h
Time to reach the maximum plasma concentration (Cmax) [5]: 30 min
Changes in the drug contents in the stress stability test ([6]; 80 ± 5 °C or RH 90 ± 5%, entire period (21 days)): No significant changes
Contents ([6]; 80 ± 5 °C, 0 days): 98.6 ± 0.8%
Contents ([6]; 80 ± 5 °C, 14 days): 98.2 ± 0.6%
Contents ([6]; 80 ± 5 °C, 21 days): 97.1 ± 0.9%
Contents ([6]; RH 90 ± 5%, 0 days): 98.6 ± 0.8%
Contents ([6]; RH 90 ± 5%, 14 days): 98.9 ± 0.4%
Contents ([6]; RH 90 ± 5%, 21 days): 98.5 ± 0.4%
Efflux ratio, times higher than that of PEL-T [7]: 1.6 times
Kp B to A, times higher than that of PEL-T ([7]; secretory direction, not statistically significant): 1.3 times
efflux ratio at 120 min, 50 μM [8]: 1.24
